From ChEMBL document CHEMBL3259599, “Novel colchicine-site binders with a cyclohexanedione scaffold identified through a ligand-based virtual screening approach” (J Med Chem, 2014) come the findings set out here.

A short description of assay [1]: Antiproliferative activity against HMEC1 after 4 days by coulter counter analysis. The class given is functional. The note with it: Homo sapiens, HMEC-1, 96 h.
Assay [2] in a line: Antiproliferative activity against MBEC after 3 days by coulter counter analysis. The format is functional, Mus musculus.
Assay [3] is described as follows: Antiproliferative activity against BAEC after 3 days by coulter counter analysis. The note with it: Bos taurus, 72 h. The format is functional.
In assay [4] the test system is L1210. As to the kind of experiment: Antiproliferative activity against mouse L1210 cells after 48 to 96 hrs by coulter counter analysis. The format is functional, cell-based.
Assay [5] concerns CCRF-CEM. As to the kind of experiment: Antiproliferative activity against human CEM cells after 48 to 96 hrs by coulter counter analysis. The format is functional, cell-based.
In assay [6] the test system is HeLa. The assay can be described thus: Antiproliferative activity against human HeLa cells after 4 days by coulter counter analysis. The class given is functional, cell-based. The note with it: 96 h.
For assay [7], the target named is T1, Tubulin (Bos taurus) (UniProt Q6B856+Q862L2+Q862F3). The assay can be described thus: Displacement of MTC from calf brain tubulin colchicine binding site at 20 uM by fluorescence spectroscopic analysis.
In assay [8] the target is T1, Tubulin (Bos taurus). As to the kind of experiment: Displacement of R-PT from calf brain tubulin at 25 degC by fluorescence spectroscopic analysis.

Calls of active or inactive are those of the source. The rule behind the calls is not given here. Some results are limits rather than exact numbers.

Regarding `CCC(Nc1ccc(O)cc1)=C1C(=O)CC(c2ccccc2)CC1=O` (stereo not given), the IC50 in assay [1] amounted to 28 µM; in assay [2], 18 µM; in assay [3], 36 µM; in assay [4] it was 14 µM; in assay [5], 34 µM; in assay [6], 79 µM.

Take `CCC(Nc1cccc(OC)c1)=C1C(=O)CC(c2ccccc2)CC1=O` (stereo not given): the IC50 worked out at 18 µM in assay [1]; 16 µM in assay [2]; 64 µM in assay [3]; 32 µM in assay [4]; 45 µM in assay [5]; 66 µM in assay [6].

For `CC(Nc1ccccc1C(F)(F)F)=C1C(=O)CC(c2ccccc2)CC1=O` (stereo not given), the IC50 in assay [1] was 7.7 µM; in assay [2] it was 8.7 µM; in assay [3], 8.1 µM; in assay [4], 14 µM; in assay [5], 18 µM; in assay [6], 32 µM.

Regarding `COc1ccccc1NC(C)=C1C(=O)CC(c2ccccc2C)CC1=O` (stereo not given), the concentration for half-maximal inhibition (IC50) in assay [1] is 5.8 µM; in assay [2], 6.8 µM; in assay [3], 3.2 µM; in assay [4] it was 11 µM; in assay [5], 7.2 µM; in assay [6], 13 µM.

For the compound `COc1ccccc1NC(C)=C1C(=O)CC(c2c(C)cccc2C)CC1=O` (stereo not given), the IC50 in assay [1] was found to be 35 µM; in assay [2], 39 µM; in assay [3] it was 41 µM; in assay [4] it was 24 µM; in assay [5], 23 µM; in assay [6] it was 55 µM.

With `CC(Nc1ccccc1Cl)=C1C(=O)CC(c2ccccc2)CC1=O` (stereo not given), the IC50 in assay [1] was 0.56 µM; in assay [2] it was 0.47 µM; in assay [3] it was 0.29 µM; in assay [4], 0.7 µM; in assay [5] it was 0.64 µM; in assay [6], 0.71 µM.

For the compound `CCC(Nc1ccccc1C)=C1C(=O)CC(c2ccccc2)CC1=O` (stereo not given), the IC50 in assay [1] is 2.1 µM; in assay [2], 2.8 µM; in assay [3], 2.2 µM; in assay [4], 6.9 µM; in assay [5], 6.3 µM; in assay [6], 9.2 µM.

Regarding `COc1cccc(C2CC(=O)C(=C(C)Nc3ccccc3OC)C(=O)C2)c1` (stereo not given), the IC50 in assay [1] worked out at 0.3 µM; in assay [2], 0.41 µM; in assay [3] it was 0.23 µM; in assay [4], 0.21 µM; in assay [5], 0.24 µM; in assay [6], 0.69 µM. The inhibition entry in assay [7] is “Active”. The same compound yielded a Ka in assay [8] of 7.5 ×10⁶ /M.

Regarding `COc1ccc(C2CC(=O)C(=C(C)Nc3ccccc3OC)C(=O)C2)cc1` (stereo not given), the IC50 in assay [1], in assay [2], in assay [3], in assay [4], in assay [5] and in assay [6] was more than 100 µM throughout.

For the compound `COc1cccc(C2CC(=O)C(=C(C)Nc3ccccc3C)C(=O)C2)c1` (stereo not given), the IC50 came to 0.67 µM in assay [1]; 0.64 µM in assay [2]; 0.48 µM in assay [3]; 0.26 µM in assay [4]; 0.72 µM in assay [5]; 0.66 µM in assay [6].

Turning to `COc1ccccc1NC(C)=C1C(=O)CC(C)(C)CC1=O`, the IC50 in assay [1] is 76 µM; in assay [2], 71 µM; in assay [3] it was 48 µM; in assay [4] it was more than 100 µM; in assay [5], more than 100 µM; in assay [6], more than 100 µM.

As to `CCCC(Nc1ccccc1C)=C1C(=O)CC(c2ccccc2)CC1=O` (stereo not given), the IC50 is 44 µM in assay [1]; 47 µM in assay [2]; 46 µM in assay [3]; 41 µM in assay [4]; not below 100 µM in assay [5]; more than 100 µM in assay [6].

As for `COc1ccccc1NC(C)=C1C(=O)CC(c2cccc(C)c2)CC1=O` (stereo not given), the IC50 came out at 0.33 µM in assay [1]; 0.42 µM in assay [2]; 0.26 µM in assay [3]; 0.17 µM in assay [4]; 0.31 µM in assay [5]; 0.79 µM in assay [6].

On to `CCC(Nc1cc(OC)c(OC)c(OC)c1)=C1C(=O)CC(c2ccccc2)CC1=O` (stereo not given), for which the IC50 in assay [1], in assay [2], in assay [3], in assay [4], in assay [5] and in assay [6] was more than 100 µM in each case.

For `CCC(Nc1ccc(OC)cc1)=C1C(=O)CC(c2ccccc2)CC1=O` (stereo not given), the IC50 in assay [1] is not below 100 µM; in assay [2] it was 57 µM; in assay [3], not below 100 µM; in assay [4], 58 µM; in assay [5], 67 µM; in assay [6] it was not below 100 µM.

`COc1cccc(OC)c1NC(C)=C1C(=O)CC(c2ccccc2)CC1=O` (stereo not given): the IC50 was determined as 1.4 µM in assay [1]; 1.2 µM in assay [2]; 0.46 µM in assay [3]; 1 µM in assay [4]; 1.4 µM in assay [5]; 1.1 µM in assay [6].

With `CCCC(Nc1ccccc1OC)=C1C(=O)CC(c2ccccc2)CC1=O` (stereo not given), the half-inhibitory concentration (IC50) is 31 µM in assay [1]; 27 µM in assay [2]; 16 µM in assay [3]; 36 µM in assay [4]; 41 µM in assay [5]; 59 µM in assay [6].

Take `COc1ccccc1NC(C)=C1C(=O)CC(c2ccccc2F)CC1=O` (stereo not given): the IC50 in assay [1] worked out at 4.3 µM; in assay [2], 5.4 µM; in assay [3], 2.7 µM; in assay [4], 6.3 µM; in assay [5] it was 4.9 µM; in assay [6], 4.8 µM.

Regarding `COc1ccccc1NC(C)=C1C(=O)CC(C2CCCCC2)CC1=O` (stereo not given), the IC50 was 12 µM in assay [1]; 21 µM in assay [2]; 12 µM in assay [3]; more than 8 µM in assay [4]; 15 µM in assay [5]; 11 µM in assay [6].

With `CCC(Nc1cccc(O)c1)=C1C(=O)CC(c2ccccc2)CC1=O` (stereo not given), the IC50 in assay [1] was determined as 13 µM; in assay [2] it was 12 µM; in assay [3], 7.8 µM; in assay [4], 15 µM; in assay [5] it was 48 µM; in assay [6], 75 µM.

`CCC(Nc1ccc2c(c1)OCO2)=C1C(=O)CC(c2ccccc2)CC1=O` (stereo not given): the IC50 in assay [1] stood at 53 µM; in assay [2] it was 50 µM; in assay [3], 43 µM; in assay [4] it was 38 µM; in assay [5] it was 53 µM; in assay [6] it was 76 µM.

For `COc1ccccc1NC(C)=C1C(=O)CC(c2c(F)cccc2F)CC1=O` (stereo not given), the IC50 in assay [1] was 39 µM; in assay [2], 60 µM; in assay [3], more than 100 µM; in assay [4] it was more than 100 µM; in assay [5], more than 100 µM; in assay [6] it was more than 100 µM.

`CC(Nc1cccc(F)c1F)=C1C(=O)CC(c2ccccc2)CC1=O` (stereo not given): the IC50 is 10 µM in assay [1]; 12 µM in assay [2]; 14 µM in assay [3]; 19 µM in assay [4]; 25 µM in assay [5]; 36 µM in assay [6].

With `CCC(Nc1ccccc1)=C1C(=O)CC(c2ccccc2)CC1=O` (stereo not given), the IC50 in assay [1] was 15 µM; in assay [2], 8.3 µM; in assay [3] it was 16 µM; in assay [4], 22 µM; in assay [5], 21 µM; in assay [6], 56 µM.

Regarding `CC(Nc1ccccc1F)=C1C(=O)CC(c2ccccc2)CC1=O` (stereo not given), the IC50 in assay [1] was found to be 0.93 µM; in assay [2], 1 µM; in assay [3], 0.51 µM; in assay [4] it was 1.9 µM; in assay [5], 1.1 µM; in assay [6], 3.4 µM.

Take `COc1ccccc1NC(C)=C1C(=O)CC(c2ccc(Cl)cc2)CC1=O` (stereo not given): the IC50 in assay [1] turned out to be 55 µM; in assay [2], 46 µM; in assay [3], 42 µM; in assay [4] it was 22 µM; in assay [5] it was 28 µM; in assay [6], 58 µM.

Consider `COc1ccccc1NC(C)=C1C(=O)CC(Cc2ccccc2)CC1=O` (stereo not given), for which the IC50 in assay [1] is 22 µM; in assay [2] it was 87 µM; in assay [3], more than 100 µM; in assay [4], more than 100 µM; in assay [5] it was more than 100 µM; in assay [6] it was more than 100 µM.

`COc1ccccc1NC(C)=C1C(=O)CC(c2ccc(F)cc2)CC1=O` (stereo not given): the IC50 in assay [1] was determined as 1.8 µM; in assay [2], 2.1 µM; in assay [3] it was 1.7 µM; in assay [4] it was 3.3 µM; in assay [5] it was 5.3 µM; in assay [6], 4 µM.

Regarding `COc1ccc(OC)c(NC(C)=C2C(=O)CC(c3ccccc3)CC2=O)c1` (stereo not given), the IC50 in assay [1] was 2.6 µM; in assay [2], 3.2 µM; in assay [3] it was 2.6 µM; in assay [4] it was 36 µM; in assay [5] it was more than 6 µM; in assay [6] it was 46 µM.

Consider `COc1ccccc1NC(C)=C1C(=O)CC(c2ccc(C)cc2)CC1=O` (stereo not given), for which the IC50 in assay [1] is 11 µM; in assay [2], 9.2 µM; in assay [3] it was 8.4 µM; in assay [4] it was more than 100 µM; in assay [5], more than 100 µM; in assay [6], 90 µM.

In the case of `CC(Nc1ccccc1C)=C1C(=O)CC(c2cccc(O)c2)CC1=O` (stereo not given), the IC50 in assay [1] is 2.2 µM; in assay [2], 2.5 µM; in assay [3], 2.1 µM; in assay [4] it was 3.5 µM; in assay [5] it was 6.2 µM; in assay [6] it was 4.1 µM.

On to `CC(Nc1c(F)cccc1F)=C1C(=O)CC(c2ccccc2)CC1=O` (stereo not given), for which the IC50 in assay [1] stood at 6.6 µM; in assay [2], 9.2 µM; in assay [3], 8.4 µM; in assay [4], 11 µM; in assay [5], 21 µM; in assay [6], 17 µM.

Regarding `CCC(Nc1ccc(OC)c(OC)c1)=C1C(=O)CC(c2ccccc2)CC1=O` (stereo not given), the IC50 in assay [1], in assay [2], in assay [3], in assay [4], in assay [5] and in assay [6] was more than 100 µM in each case.

As usually defined, the IC50 is the concentration that gives 50% inhibition. Lower therefore signals greater potency.
